Test results published in ChEMBL document CHEMBL4715697, “Synthesis and biological activity of benzamide DNA minor groove binders” (2016).

Key:
Type in all cases: functional
[1] = system: SF-539; experiment: Growth inhibition of human SF-539 cells assessed as cell growth at 1 uM incubated for 48 hrs by sulforhodamine B assay relative to control; conditions: read-out: Activity
[2] = system: HCT-15; experiment: Growth inhibition of human HCT-15 cells assessed as cell growth at 100 uM incubated for 48 hrs by sulforhodamine B assay relative to control; conditions: read-out: Activity
[3] = system: K562; experiment: Growth inhibition of human K562 cells assessed as cell growth at 0.1 uM incubated for 48 hrs by sulforhodamine B assay relative to control; conditions: read-out: Activity
[4] = system: HL-60(TB); experiment: Growth inhibition of human HL-60(TB) cells assessed as cell growth at 1 uM incubated for 48 hrs by sulforhodamine B assay relative to control; conditions: read-out: Activity
[5] = system: SNB-19; experiment: Growth inhibition of human SNB-19 cells assessed as cell growth at 100 uM incubated for 48 hrs by sulforhodamine B assay relative to control; conditions: read-out: Activity
[6] = system: HCT-116; experiment: Growth inhibition of human HCT-116 cells incubated for 48 hrs by sulforhodamine B assay
[7] = system: CCRF-CEM; experiment: Growth inhibition of human CCRF-CEM cells assessed as cell growth at 0.1 uM incubated for 48 hrs by sulforhodamine B assay relative to control; conditions: read-out: Activity
[8] = system: IGROV-1; experiment: Growth inhibition of human IGROV-1 cells incubated for 48 hrs by sulforhodamine B assay
[9] = system: SF-268; experiment: Growth inhibition of human SF-268 cells assessed as cell growth at 1 uM incubated for 48 hrs by sulforhodamine B assay relative to control; conditions: read-out: Activity
[10] = system: OVCAR-4; experiment: Growth inhibition of human OVCAR-4 cells incubated for 48 hrs by sulforhodamine B assay
[11] = system: NCI/ADR-RES; experiment: Growth inhibition of human NCI/ADR-RES cells assessed as cell growth at 100 uM incubated for 48 hrs by sulforhodamine B assay relative to control; conditions: read-out: Activity
[12] = system: T47D; experiment: Growth inhibition of human T47D cells incubated for 48 hrs by sulforhodamine B assay
[13] = system: SN12C; experiment: Growth inhibition of human SN12C cells assessed as cell growth at 100 uM incubated for 48 hrs by sulforhodamine B assay relative to control; conditions: read-out: Activity
[14] = system: ACHN; experiment: Growth inhibition of human ACHN cells assessed as cell growth at 0.1 uM incubated for 48 hrs by sulforhodamine B assay relative to control; conditions: read-out: Activity
[15] = system: RPMI-8226; experiment: Growth inhibition of human RPMI-8226 cells incubated for 48 hrs by sulforhodamine B assay
[16] = system: SNB-19; experiment: Growth inhibition of human SNB-19 cells assessed as cell growth at 0.01 uM incubated for 48 hrs by sulforhodamine B assay relative to control; conditions: read-out: Activity
[17] = system: PC-3; experiment: Growth inhibition of human PC-3 cells incubated for 48 hrs by sulforhodamine B assay
[18] = system: HCT-116; experiment: Growth inhibition of human HCT-116 cells assessed as cell growth at 0.01 uM incubated for 48 hrs by sulforhodamine B assay relative to control; conditions: read-out: Activity
[19] = system: SNB-75; experiment: Growth inhibition of human SNB-75 cells assessed as cell growth at 100 uM incubated for 48 hrs by sulforhodamine B assay relative to control; conditions: read-out: Activity
[20] = system: KM12; experiment: Growth inhibition of human KM12 cells assessed as cell growth at 1 uM incubated for 48 hrs by sulforhodamine B assay relative to control; conditions: read-out: Activity
[21] = system: HCC 2998; experiment: Growth inhibition of human HCC 2998 cells incubated for 48 hrs by sulforhodamine B assay
[22] = system: PC-3; experiment: Growth inhibition of human PC-3 cells assessed as cell growth at 100 uM incubated for 48 hrs by sulforhodamine B assay relative to control; conditions: read-out: Activity
[23] = system: SW-620; experiment: Growth inhibition of human SW-620 cells assessed as cell growth at 0.1 uM incubated for 48 hrs by sulforhodamine B assay relative to control; conditions: read-out: Activity
[24] = system: HOP-62; experiment: Growth inhibition of human HOP-62 cells assessed as cell growth at 1 uM incubated for 48 hrs by sulforhodamine B assay relative to control; conditions: read-out: Activity
[25] = system: SR; experiment: Growth inhibition of human SR cells assessed as cell growth at 0.1 uM incubated for 48 hrs by sulforhodamine B assay relative to control; conditions: read-out: Activity
[26] = system: LOX IMVI; experiment: Growth inhibition of human LOX IMVI cells assessed as cell growth at 0.1 uM incubated for 48 hrs by sulforhodamine B assay relative to control; conditions: read-out: Activity
[27] = system: M14; experiment: Growth inhibition of human M14 cells assessed as cell growth at 100 uM incubated for 48 hrs by sulforhodamine B assay relative to control; conditions: read-out: Activity
[28] = system: SK-OV-3; experiment: Growth inhibition of human SK-OV-3 cells assessed as cell growth at 1 uM incubated for 48 hrs by sulforhodamine B assay relative to control; conditions: read-out: Activity
[29] = system: MDA-MB-435; experiment: Growth inhibition of human MDA-MB-435 cells assessed as cell growth at 100 uM incubated for 48 hrs by sulforhodamine B assay relative to control; conditions: read-out: Activity
[30] = system: OVCAR-5; experiment: Growth inhibition of human OVCAR-5 cells assessed as cell growth at 100 uM incubated for 48 hrs by sulforhodamine B assay relative to control; conditions: read-out: Activity
[31] = system: A498; experiment: Growth inhibition of human A498 cells incubated for 48 hrs by sulforhodamine B assay
[32] = system: TK-10; experiment: Growth inhibition of human TK-10 cells assessed as cell growth at 1 uM incubated for 48 hrs by sulforhodamine B assay relative to control; conditions: read-out: Activity
[33] = system: KM12; experiment: Growth inhibition of human KM12 cells assessed as cell growth at 100 uM incubated for 48 hrs by sulforhodamine B assay relative to control; conditions: read-out: Activity
[34] = system: MOLT-4; experiment: Growth inhibition of human MOLT-4 cells assessed as cell growth at 1 uM incubated for 48 hrs by sulforhodamine B assay relative to control; conditions: read-out: Activity
[35] = read-out: LC50 (the source's name)
[36] = read-out: pLC50 (the source's name) (converted)

CC(=O)Nc1cc(CO[Si](C)(C)C(C)(C)C)cc(NC(=O)c2ccc(C(=O)Nc3cccc(NC(=O)CCCN(C)C)c3)cc2)c1
growth at 1 µM [1]: 100% | growth at 100 µM [2]: 82% | growth at 0.1 µM [3]: 96% | growth at 1 µM [4]: 86% | growth at 100 µM [5]: 95% | GI50 ([6]; read-out: GI50): > 75 µM | CC50 [6, 35]: > 75 µM | TGI ([6]; read-out: TGI): > 75 µM | GI50 ([6]; read-out: pGI50 (converted)): > 75.9 µM | CC50 [6, 36]: > 75.9 µM | TGI ([6]; read-out: pTGI): > 75.9 µM | growth at 0.1 µM [7]: 98% | GI50 ([8]; read-out: GI50): > 75 µM | CC50 [8, 35]: > 75 µM | TGI ([8]; read-out: TGI): > 75 µM | GI50 ([8]; read-out: pGI50 (converted)): > 75.9 µM | CC50 [8, 36]: > 75.9 µM | TGI ([8]; read-out: pTGI): > 75.9 µM | growth at 1 µM [9]: 101% | GI50 ([10]; read-out: GI50): > 75 µM | LC50 (concentration killing 50% of cells) ([10]; read-out: LC50): > 75 µM | TGI ([10]; read-out: TGI): > 75 µM | GI50 ([10]; read-out: pGI50 (converted)): > 75.9 µM | LC50 (concentration killing 50% of cells) ([10]; read-out: pLC50 (converted)): > 75.9 µM | TGI ([10]; read-out: pTGI): > 75.9 µM | growth at 100 µM [11]: 92% | GI50 ([12]; read-out: GI50): > 75 µM | CC50 [12, 35]: > 75 µM | TGI ([12]; read-out: TGI): > 75 µM | GI50 ([12]; read-out: pGI50 (converted)): > 75.9 µM | CC50 [12, 36]: > 75.9 µM | TGI ([12]; read-out: pTGI): > 75.9 µM | growth at 100 µM [13]: 91% | growth at 0.1 µM [14]: 97% | GI50 ([15]; read-out: GI50): > 75 µM | CC50 [15, 35]: > 75 µM | TGI ([15]; read-out: TGI): > 75 µM | GI50 ([15]; read-out: pGI50 (converted)): > 75.9 µM | CC50 [15, 36]: > 75.9 µM | TGI ([15]; read-out: pTGI): > 75.9 µM | growth at 0.01 µM [16]: 96% | GI50 ([17]; read-out: GI50): > 75 µM | CC50 [17, 35]: > 75 µM | TGI ([17]; read-out: TGI): > 75 µM | GI50 ([17]; read-out: pGI50 (converted)): > 75.9 µM | CC50 [17, 36]: > 75.9 µM | TGI ([17]; read-out: pTGI): > 75.9 µM | growth at 0.01 µM [18]: 104% | growth at 100 µM [19]: 50% | growth at 1 µM [20]: 99% | GI50 ([21]; read-out: GI50): > 75 µM | CC50 [21, 35]: > 75 µM | TGI ([21]; read-out: TGI): > 75 µM | GI50 ([21]; read-out: pGI50 (converted)): > 75.9 µM | CC50 [21, 36]: > 75.9 µM | TGI ([21]; read-out: pTGI): > 75.9 µM | growth at 100 µM [22]: 93% | growth at 0.1 µM [23]: 100% | growth at 1 µM [24]: 97% | growth at 0.1 µM [25]: 103% | growth at 0.1 µM [26]: 94% | growth at 100 µM [27]: 75% | growth at 1 µM [28]: 107% | growth at 100 µM [29]: 88% | growth at 100 µM [30]: 79% | LC50 (concentration giving 50% net cell kill) ([31]; read-out: LC50): > 75 µM | TGI ([31]; read-out: TGI): > 75 µM | LC50 (concentration giving 50% net cell kill) ([31]; read-out: pLC50 (converted)): > 75.9 µM | TGI ([31]; read-out: pTGI): > 75.9 µM | growth at 1 µM [32]: 111% | growth at 100 µM [33]: 88% | growth at 1 µM [34]: 91%
